By EC50 is commonly meant the midpoint of the concentration-response curve. By melting point is commonly meant the temperature, or range, at which the solid turns liquid.

For data set [1], the target named is T1, human calcitonin-2 receptor (hCT2R) (Homo sapiens, UniProt P30988).
T1 construct: expressed in transfected cells; host or cells: Chinese hamster ovary (CHO) cells co-transfected with a 6CRE-luciferase reporter; receptor cDNA cloned from the MCF7 cell line
T1 sequence (P30988 25-474): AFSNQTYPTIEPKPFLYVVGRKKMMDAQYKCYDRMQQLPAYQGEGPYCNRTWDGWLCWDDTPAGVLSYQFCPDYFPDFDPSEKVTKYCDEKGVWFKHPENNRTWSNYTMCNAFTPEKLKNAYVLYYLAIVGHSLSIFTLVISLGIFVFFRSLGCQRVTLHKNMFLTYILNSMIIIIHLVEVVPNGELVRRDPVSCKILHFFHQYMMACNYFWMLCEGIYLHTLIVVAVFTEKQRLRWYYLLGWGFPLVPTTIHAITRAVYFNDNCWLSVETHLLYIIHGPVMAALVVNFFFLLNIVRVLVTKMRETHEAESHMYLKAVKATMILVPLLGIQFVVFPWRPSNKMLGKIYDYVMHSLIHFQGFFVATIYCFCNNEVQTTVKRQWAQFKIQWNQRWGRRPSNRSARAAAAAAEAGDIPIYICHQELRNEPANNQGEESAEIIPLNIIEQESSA
In words: HCT2R CRE-luc reporter assay. In kind it is cell-based. The conditions noted are these: agonist activity; CHO-6CRE-luciferase cells co-transfected with hCT2R. For orientation: In a reporter assay the amount or activity of a reporter protein is the signal.

For a further data set, the system named is neonatal rat calvaria. As to the kind of experiment: Rat calvaria assay in vitro (bone resorption). Further details: key: Active: Rat calvaria: Concentration-dependent inhibition of bone resorption with efficacy equivalent to calcitonin 1 ng/ml. In kind it is cell-based. The conditions noted are these: PTH 10 ng/ml stimulated bone resorption; calcium and deoxypyridinoline in supernatant. As to the method:
Bone resorption of neonatal rat cavarial chips was measured using methods adapted from published protocols [Ulf H, Lemer Modifications of the Mouse Calvarial Technique Improve the Responsiveness to Stimulators of Bone Resorption. Journal of Bone and Mineral Research Vol 2, No. 5, 1987]. Resorption was measured by quantification of calcium in the supernatant by a calorimetric assay and of deoxypyridinoline in the supernatant by ELISA. Deoxypyridinoline is released as a by product of collagen degradation by the osteoclast
Calvaria were surgically removed from 2–3 day old Wistar rats and placed in a sterile tube containing BGJb media (Fitton-Jackson Modification)—GIBCO BRL with penicillin (10 U/ml)/streptomycin (10 μg/ml). Calvaria were washed twice with fresh media, trimmed of excess tissue, and placed in fresh media. Calvaria were uniformly sectioned and placed in the wells of a tissue culture plate in 1 ml of BGJb/P/S with 1 mg/ml BSA. Calvaria were incubated for 24 hours at 37° C., 5% CO2 before treatments. Media was aspirated and replaced with 1 ml of fresh media containing PTH 10 ng/ml . Unstimulated wells contained media alone. Test compounds or calcitonin (1 ng/ml) were added. Compounds or calcitonin were added again on days 2 and 3, with no medium or PTH additions. Upon completion of the assay, the media was collected and stored at −20° C. until analysis was performed. Calvaria were air-dried for several days, and dry weight was quantified.
Deoxypyridinoline ELISA: Supernatants were evaluated for deoxypyridinoline crosslinks according to kit manufacturer instructions. SoftMax software was used to evaluate ELISA data from a 96-well format to generate a standard curve. Sample values were extrapolated from this standard curve. Extrapolated sample values were imported into a Microsoft Excel to normalize sample values to dried calvarial weight. Data was expressed as nanomolar DPD/mg calvaria.
Calcium analysis: Calcium determinations were made using Arsenazo III reagent from Sigma Diagnostics No. 588. Procedure followed as described by manufacturer in kit instructions. Data was imported from plate reader into Microsoft® Excel® and calcium concentrations were calculated as follows: [Asample/Astandard]×Concentration of standard=mg/dL Calcium
Sample values were normalized to dried calvarial weight and expressed as mg/dL calcium per mg calvaria.

Data set [2] has as its system Thyroid-parathyroidectomized (TPTX) rats. As to the kind of experiment: Rat TPTX assay in vivo (PTH-induced elevation of serum calcium). The conditions noted are these: for TPTX rat in vivo: serum calcium, PTH-infused TPTX rats, vs PTH + Vehicle. Further details: key to TPTX rat in vivo: Active: TPTX (Thyroid- parathyroidectomized) rat: Significant inhibition of bone resorption reflected in serum calcium levels relative to PTH + Vehicle controls. An excerpt: Thyroid-parathyroidectomized (TPTX) rats were used to determine the effects of compounds on PTH-induced elevation of serum calcium in vivo. The thyroid and parathyroid glands of male CD rats were removed under anesthesia and subcutaneous pumps containing human parathyroid hormone (hPTH 1–34) were implanted two to five days after TPTX. […] PTH was delivered at a rate of 30 micrograms/kg/hour. PTH causes significant elevations of serum calcium in TPTX rats given no other treatments. Rats were treated with vehicle, test compounds at various doses or calcitonin 16 units/kg SC. […] Serurn calcium was measured at baseline and every two hours up to six hours. Averaged group responses at each time point were compared using Analysis of Variance (ANOVA).

The next data set deals with Human osteoclasts. As to the kind of experiment: Human osteoclast assay in vitro (bone resorption). Type of data set: cell-based. The arrangement: key: Active: Human osteoclast: Significant inhibition of bone resorption in the absence of toxicity, relative to vehicle-treated controls. The conditions noted are these: inhibition of bone resorption on cortical bone slices, 3 to 7 days. As to the method: Human osteoclasts were differentiated from peripheral blood cells using methods adapted from published protocols [Journal of Experimental Medicine 188(5):997–1001, 1998. TRANCE is necessary and sufficient for osteoblast-mediated activation of bone resorption in osteoclasts. K Fuller, B Wong, S Fox, Y Choi, and T J Chambers]. Human mononuclear cells were incubated on bone slices in M_CSF (30 ng/ml) and RANKL (TRANCE, 30 ng/ml) for 10 days. Differentiated osteoclasts were identified using an osteoclast-specific monoclonal antibody. Osteoclasts with test compounds or vehicle were incubated on cortical bone slices for an additional 3 to 7 days to measure bone resorption. In addition to bone resorption, toxicity and osteoclastogenesis were observed after compound treatments. A positive response was defined as significant inhibition of bone resorption without toxicity.

`CCOC(=O)c1c(CCc2ccc(C(F)(F)F)cc2)nc2c(c1-c1ccc(S(=O)(=O)NCc3ccco3)cc1)C(=O)N1CCC[C@@H]21` [Example 2, Ethyl (9aS)-4-(4-{[(2-furylmethyl)amino]sulfonyl}phenyl)-5-oxo-2-{2-[4-(trifluoromethyl)phenyl]ethyl}-7,8,9,9a-tetrahydro-5H-pyrido[2,3-a]pyrrolizine-3-carboxylate] showed a melting point of 181 to 182 °C. Further, in data set [1], the EC50 lay in the range of 100 to 1000 nM.
`CCOC(=O)c1c(CCc2ccc(C(F)(F)F)cc2)nc2c(c1-c1ccc(C(=O)N[C@H](C)c3ccncc3)cc1)C(=O)N1CCC[C@@H]21` [Example 4, Ethyl (9aS)-5-oxo-4-[4-({[(1R)-1-(4-pyridinyl)ethyl]amino}carbonyl)phenyl]-2-{2-[4-(trifluoromethyl)phenyl]ethyl}-7,8,9,9a-tetrahydro-5H-pyrido[2,3-a]pyrrolizine-3-carboxylate]: the concentration for a half-maximal effect (EC50) in data set [1] fell in the range of 10 to 100 nM. In the data set on neonatal rat calvaria, the “Rat calvaria in vitro” value is given as “Active”. Moreover, the “TPTX rat in vivo” value in data set [2] is given as “Active”.
Compound `CCOC(=O)c1c(CCc2ccc(C(F)(F)F)cc2)nc2c(c1-c1ccc(C(=O)N[C@@H](C)c3ccncc3)cc1)C(=O)N1CCC[C@@H]21` [Example 5, Ethyl (9aS)-5-oxo-4-[4-({[(1S)-1-(4-pyridinyl)ethyl]amino}carbonyl)phenyl]-2-{2-[4-(trifluoromethyl)phenyl]ethyl}-7,8,9,9a-tetrahydro-5H-pyrido[2,3-α]pyrrolizine-3-carboxylate] yielded a melting point of 158 to 160 °C. For the same compound, the concentration for a half-maximal effect (EC50) in data set [1] was in the range of 100 to 1000 nM. In addition, the “Rat calvaria in vitro” value in the data set with neonatal rat calvaria was “Active”. The “TPTX rat in vivo” value in data set [2] is listed as “Active”.
As for `CCOC(=O)c1c(CCc2ccc(C(F)(F)F)cc2)nc2c(c1-c1ccc(NC(=O)Nc3ccccc3)cc1)C(=O)N1CCC[C@@H]21` [Example 7, Ethyl (9aS)-4-{4-[(anilinocarbonyl)amino]phenyl}-5-oxo-2-{2-[4-(trifluoromethyl)phenyl]ethyl}-7,8,9,9a-tetrahydro-5H-pyrido[2,3-α]pyrrolizine-3-carboxylate], the melting point was 137 to 139 °C. Moreover, the concentration giving a half-maximal response (EC50) in data set [1] lay in the range of 100 to 1000 nM.
With `CCOC(=O)c1c(CCc2ccc(C(F)(F)F)cc2)nc2c(c1-c1ccc(C(=O)NCc3ccco3)cc1)C(=O)N1CCC[C@@H]21` [Example 11, Ethyl(9aS)-4-(4-{[(2-furylmethyl)amino]carbonyl}phenyl)-5-oxo-2-{2-[4-(trifluoromethyl)phenyl]ethyl}-7,8,9,9a-tetrahydro-5H-pyrido[2,3-a]pyrrolizine-3-carboxylate], in data set [1], the 50% effective concentration (EC50) was not above 10 nM. Also, the “Human osteoclast in vitro” value with Human osteoclasts was “Active”. Besides, in the data set with neonatal rat calvaria, the “Rat calvaria in vitro” value is “Active”.
As for `CCOC(=O)c1c(CCc2ccc(C(F)(F)F)cc2)nc2c(c1-c1ccc(C(=O)NCc3cccnc3)o1)C(=O)N1CCC[C@@H]21` [Example 12, Ethyl(9aS)-5-oxo-4-(5-{[(3-pyridinylmethyl)amino]carbonyl}-2-furyl)-2-{2-[4-(trifluoromethyl)phenyl]ethyl}-7,8,9,9a-tetrahydro-5H-pyrido[2,3-a]pyrrolyzine-3-carboxylate], in data set [1], the EC50 lay within 10 to 100 nM. Moreover, the “Human osteoclast in vitro” value in the data set on Human osteoclasts is listed as “Active”. Further, the “Rat calvaria in vitro” value in the data set with neonatal rat calvaria is “Active”. The “TPTX rat in vivo” value in data set [2] is given as “Active”.
With `CCOC(=O)c1c(CCc2ccc(F)cc2)nc2c(c1-c1cc(C(=O)NCc3ccc(F)c(F)c3)cs1)C(=O)N1CCC[C@@H]21` [Example 16, Ethyl(9aS)-4-(4-{[(3,4-difluorobenzyl)amino]carbonyl}-2-thienyl)-2-[2-(4-fluorophenyl)ethyl]-5-oxo-7,8,9,9a-tetrahydro-5H-pyrido[2,3-a]pyrrolizine-3-carboxylate], the 50% effective concentration (EC50) in data set [1] was not above 10 nM. The “Rat calvaria in vitro” value in the data set with neonatal rat calvaria is “Active”. Also, in data set [2], the “TPTX rat in vivo” value is reported as “Active”.
As for `CCOC(=O)c1c(CCc2ccc(OC)cc2)nc2c(c1-c1ccc(C(=O)NCc3ccccn3)cc1)C(=O)N1CCC[C@H]1C2` [Example 57, Ethyl (9aS)-2-[2-(4-methoxyphenyl)ethyl]-5-oxo-4-(4-{[(2-pyridinylmethyl)amino]carbonyl}phenyl)-5,7,8,9,9a,10-hexahydropyrrolo[1,2-g][1,6]naphthyridine-3-carboxylate], the melting point is more than 200 °C. The concentration for a half-maximal effect (EC50) in data set [1] is not below 1000 nM.
Take calcitonin [reference compound]: the “suppression of PTH-induced hypercalcemia” value in data set [2] (16 units/kg SC, TPTX rats) is “maximal suppression”.

The values are drawn from patent US7189851B2, “Condensed heterocyclic compounds as calcitonin agonists” (SmithKline Beecham Corporation, priority 2002, dated 2007).
